Laboratory results: PMC12155840 (Molecules, 2025)
One block for each molecule: values may come before it.

Legend:
[1] = target: T1, human A1 adenosine receptor (hA1R) (Homo sapiens, UniProt P30542); assay: cAMP inhibition assay, allosteric mode with adenosine as orthosteric agonist, CHO-K1-hA1R cells; operational allosteric ternary complex model; format: cell-based; design: host or cells: CHO-K1; settings: for Allosteric modulation of adenosine-induced cAMP inhibition (shift of concentration-response curve): test compound at 20 µM; for Logαβ (binding and activation cooperativity) / αβ / τB / Kb / Kd / LogτB (operational efficacy as allosteric agonist): orthosteric agonist adenosine; for αβ / τB: antilogarithm; for Kb: antilogarithm of logKB; for Kd: operational model fit, read-out: logKB (converted)
T1 sequence (P30542 1-326): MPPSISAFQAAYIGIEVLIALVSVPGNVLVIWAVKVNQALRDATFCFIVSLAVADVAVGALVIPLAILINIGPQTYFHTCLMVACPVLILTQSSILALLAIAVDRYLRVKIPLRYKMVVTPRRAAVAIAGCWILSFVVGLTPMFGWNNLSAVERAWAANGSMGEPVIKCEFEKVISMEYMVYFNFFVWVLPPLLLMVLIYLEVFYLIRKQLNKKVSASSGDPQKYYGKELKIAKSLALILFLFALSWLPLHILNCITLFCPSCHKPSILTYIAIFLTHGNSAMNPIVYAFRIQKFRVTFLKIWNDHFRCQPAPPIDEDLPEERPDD

human A1 receptor = target: T2, human A1 receptor (Homo sapiens, UniProt P30542); assay: cAMP inhibition assay, allosteric mode with CPA as orthosteric agonist (DiscoverX HitHunter cAMP XS+), CHO-K1 cells overexpressing the human A1 receptor; operational allosteric ternary complex model; format: cell-based; settings: for αβ / τB: antilogarithm; for Kb: antilogarithm of logKB; for Kd: operational model fit, read-out: logKB (converted)
T2 construct: host or cells: CHO-K1
T2 sequence (P30542 1-326): T1 sequence (P30542 1-326)
Experimental: Experiments with CPA as an agonist: In experiments with CPA as an agonist, inhibition of intracellular cAMP production in response to CPA stimulation of the receptor was determined using a functional assay in CHO-K1 cells overexpressing the human A1 receptor (Eurofins DiscoverX Corporation, Fremont, CA, USA). Cells were seeded in a total volume of 20 μL into white-walled, 384-well microplates and incubated at 37 °C for the appropriate time prior to testing.
Experiments with CPA as an agonist: cAMP production was measured using the DiscoverX HitHunter cAMP XS+ assay (Eurofins DiscoverX Corporation, Fremont, CA, USA). For allosteric modulation studies, cells were pre-incubated with allosteric modulators at various concentrations, followed by induction with the agonist CPA at its EC20 concentration (i.e., the concentration eliciting 20% of the maximal response). Media were aspirated from cells and replaced with 10 μL of HBSS (10 mM HEPES). Sample stocks were diluted to prepare a 4-fold higher (4x) concentration than the final in-well concentration. Next, 5 μL of the 4x compound was added to the cells and incubated at room temperature or 37 °C for 10 min. This was followed by the addition of 5 μL of the 4x EC20 agonist solution and further incubation for 30 min at 37 °C. To stimulate intracellular cAMP production and provide a dynamic range for detecting Gi-mediated inhibition, forskolin at its EC80 was included in all experiments. The final DMSO (vehicle) concentration was 1%. After incubation with compounds, the assay signal was generated by adding 5 uL of and cAMP XS+ Ab reagent followed by 20 μL of the cAMP XS+ ED/CL lysis cocktail and then incubating for 1 h. This was followed by adding 20 μL of the cAMP XS+ EA reagent and incubating for 2 h at room temperature. Chemiluminescent signals were detected using a PerkinElmer EnVision™ instrument. Compound activity was analyzed using the CBIS data analysis suite (ChemInnovation, San Diego, CA, USA). Control dose–response curves were generated using CPA as the agonist. Data were normalized to the maximal response observed with CPA (positive control) and the minimal response observed with vehicle (1% DMSO, negative control).
The operational allosteric ternary complex model (ATCM) accounts for the ability of an allosteric ligand to modify affinity and/or efficacy and even activate a receptor independently. This model describes a simplified case for positive allosteric modulators (PAMs), where the orthosteric ligand is a full agonist.
Explanation of parameters: A = Agonist concentration; B = Allosteric modulator concentration; KB = Dissociation constant for the modulator; αβ = Allosteric coupling constant; τB = Intrinsic activity of the modulator; EC50 = Half-maximal effective concentration of the agonist; n = Hill coefficient; Emax = Maximal system response; Basal = Basal activity (response in the absence of any ligand); Span = Emax − Basal (difference between maximum and basal activity).
The response curve Y is defined as follows: Y=Basal+Span·(Part1)/(Part1+Part2) where Part1=A·KB+αβ·B+τB·B·EC50^n Part2=(EC50^n·(KB+B))^n Span=Emax−Basal

[2] = target: T1, human A1 adenosine receptor (hA1R); assay: cAMP inhibition assay, direct agonist mode, in CHO-K1-hA1R cells (Cisbio cAMP Gi kit, forskolin co-stimulation); settings: 0.01 to 50 µM
rat A1 receptors = test system: rat A1 receptors; design: method as in PMID 30644086; settings: 1, 10 and 30 µM, rat A1 receptors in HEK293T cells; cited from earlier work
human A1 receptors = test system: human A1 receptors; design: method as in PMID 30644086; settings: 1, 10 and 30 µM, human A1 receptors in HEK293T cells; cited from earlier work
[3] = design: method as in PMID 16220575; settings: human, oral 600 mg valerian extract; cited from earlier work
[4] = design: method as in PMID 22411722; settings: rats; cited from earlier work
[5] = design: method as in PMID 19156843; settings: isolated perfused rat livers; cited from earlier work
ECV304 human cell line = test system: ECV304 human cell line; design: method as in PMID 18704879; settings: ECV304 in vitro BBB model; cited from earlier work

SMILES: COc1cc([C@H]2OC[C@]3(O)[C@@H](c4ccc(O)c(OC)c4)OC[C@H]23)ccc1O [8-Hydroxypinoresinol, 8-Hydroxy-pinoresinol]
Allosteric modulation of adenosine-induced cAMP inhibition (shift of concentration-response curve) [1]: no significant shift

SMILES: COc1ccc([C@@H]2CC(=O)c3c(O)cc(O[C@@H]4O[C@H](CO[C@@H]5O[C@@H](C)[C@H](O)[C@@H](O)[C@H]5O)[C@@H](O)[C@H](O)[C@H]4O)cc3O2)cc1O [Hesperidin]
Allosteric modulation of adenosine-induced cAMP inhibition (shift of concentration-response curve) [1]: slight leftward shift in the dose-response curve

SMILES: COc1cc(C[C@]2(O)CO[C@@H](c3ccc(O)c(OC)c3)[C@@H]2CO)ccc1O [Olivil, (−)-olivil]
Allosteric modulation of adenosine-induced cAMP inhibition (shift of concentration-response curve) [1]: no significant shift

SMILES: COc1cc([C@H]2OC[C@H]3[C@@H]2CO[C@@H]3c2ccc(O[C@@H]3O[C@H](CO)[C@@H](O)[C@H](O)[C@H]3O)c(OC)c2)ccc1O[C@@H]1O[C@H](CO)[C@@H](O)[C@H](O)[C@H]1O [Pinoresinol diglucoside, pinoresinol-diglucoside]
Allosteric modulation of adenosine-induced cAMP inhibition (shift of concentration-response curve) [1]: no significant shift

SMILES: COc1cc([C@H]2OC[C@H]3[C@@H]2CO[C@@H]3c2ccc(O[C@@H]3O[C@H](CO)[C@@H](O)[C@H](O)[C@H]3O)c(OC)c2)ccc1O [Pinoresinol-4-O-glucoside, pinoresinol-4-O-Glucoside]
Allosteric modulation of adenosine-induced cAMP inhibition (shift of concentration-response curve) [1]: no significant shift

SMILES: CC(=O)O[C@@H]1CC(C)=C2[C@H]1[C@H](C)CC[C@H]2/C=C(\C)C(=O)O [acetoxyvalerenic acid]
permeation of the BBB model relative to diazepam (ECV304 human cell line): significantly slower than diazepam

SMILES: CC1=C2[C@@H]([C@H](C)CC[C@H]2/C=C(\C)C(=O)O)[C@H](O)C1 [hydroxyvalerenic acid]
permeation of the BBB model relative to diazepam (ECV304 human cell line): significantly slower than diazepam

Now from value to molecule, other results behind:

Allosteric modulation of adenosine-induced cAMP inhibition (shift of concentration-response curve) [1]: no significant shift
SMILES: O=C(/C=C/c1ccc(O)c(O)c1)O[C@@H]1C[C@](O)(C(=O)O)C[C@@H](O)[C@H]1O [Chlorogenic acid, chlorogenic acid]

Allosteric modulation of adenosine-induced cAMP inhibition (shift of concentration-response curve) [1]: no significant shift
SMILES: O=C(O)/C=C/c1ccc(O)cc1 [Coumaric acid, coumaric acid]

Allosteric modulation of adenosine-induced cAMP inhibition (shift of concentration-response curve) [1]: no significant shift
SMILES: COc1cc(/C=C/C(=O)O)ccc1O [Ferulic acid, trans-ferulic acid]

Allosteric modulation of adenosine-induced cAMP inhibition (shift of concentration-response curve) [1]: no significant shift
SMILES: COc1ccc(/C=C/C(=O)O)cc1O [Isoferulic acid, trans-isoferulic acid]

Allosteric modulation of adenosine-induced cAMP inhibition (shift of concentration-response curve) [1]: no significant shift
SMILES: COc1cc([C@H]2OC[C@](O)(Cc3ccc(O[C@@H]4O[C@H](CO)[C@@H](O)[C@H](O)[C@H]4O)c(OC)c3)[C@@H]2CO)ccc1O [Olivil-4-O-glucoside, (−)-olivil 4′-O-glucoside]

Logαβ (binding and activation cooperativity) [1]: 0.53
αβ [1]: 3.42
τB [1]: 0.93
Kb [1]: 25.8 µM
Kd [1]: 26.3 µM
Logαβ (binding and activation cooperativity) (human A1 receptor): −0.1
LogτB (operational efficacy as allosteric agonist) (human A1 receptor): 0.22
αβ (human A1 receptor): 0.79
τB (human A1 receptor): 1.66
Kb (human A1 receptor): 316 µM
Kd (human A1 receptor): 316 µM
Intrinsic agonist activity: effect on forskolin-stimulated cAMP levels in the absence of adenosine [2]: no significant reduction in cAMP levels
SMILES: COc1cc([C@H]2OC[C@H]3[C@@H]2CO[C@@H]3c2ccc(O)c(OC)c2)ccc1O [Pinoresinol, (+)-pinoresinol]

Logαβ (binding and activation cooperativity) [1]: −0.43
LogτB (operational efficacy as allosteric agonist) [1]: 0.42
αβ [1]: 0.37
τB [1]: 2.66
Kb [1]: 9.38 µM
Kd [1]: 9.55 µM
Logαβ (binding and activation cooperativity) (human A1 receptor): 1.11
LogτB (operational efficacy as allosteric agonist) (human A1 receptor): 0.3
αβ (human A1 receptor): 12.73
τB (human A1 receptor): 1.99
Kb (human A1 receptor): 10.8 µM
Kd (human A1 receptor): 11 µM
SMILES: Nc1scc(-c2cccc(C(F)(F)F)c2)c1C(=O)c1ccccc1 [VCP 171, reference compound]
effect on binding affinity of orthosteric agonists (rat A1 receptors): enhanced the binding affinity of orthosteric agonists
effect on binding affinity of orthosteric agonists (human A1 receptors): enhanced the binding affinity of orthosteric agonists

Logαβ (binding and activation cooperativity) [1]: 0.68
LogτB (operational efficacy as allosteric agonist) [1]: 0.77
αβ [1]: 4.79
τB [1]: 5.98
Kb [1]: 244 µM
Logαβ (binding and activation cooperativity) (human A1 receptor): 1.36
LogτB (operational efficacy as allosteric agonist) (human A1 receptor): 0.49
αβ (human A1 receptor): 23.38
τB (human A1 receptor): 3.14
Kb (human A1 receptor): 17.4 µM
Intrinsic agonist activity: effect on forskolin-stimulated cAMP levels in the absence of adenosine [2]: no significant reduction in cAMP levels
SMILES: CC1=C2[C@H](/C=C(\C)C(=O)O)CC[C@@H](C)[C@H]2CC1 [Valerenic Acid, Valerenic acid]
half-life [3]: approximately 1.1 h
peak plasma concentration of valerenic acid (molar) [3]: ~ 10 nM
oral bioavailability [4]: 33.7%
hepatic metabolism [5]: undergoes extensive hepatic metabolism, primarily through glucuronidation
permeation of the BBB model relative to diazepam (ECV304 human cell line): significantly slower than diazepam
